Experimental data from patent US12122761B2, “2-azaspiro[3.4]octane derivatives as M4 agonists” (NOVARTIS AG, priority 2019, dated 2024).

Target: T1, human cloned CHRM4 receptor (M4_CHO cells) (Homo sapiens, UniProt P08173)
T1 construct: expressed in transfected cells; host or cells: CHO-K1
T1 sequence (P08173 1-479): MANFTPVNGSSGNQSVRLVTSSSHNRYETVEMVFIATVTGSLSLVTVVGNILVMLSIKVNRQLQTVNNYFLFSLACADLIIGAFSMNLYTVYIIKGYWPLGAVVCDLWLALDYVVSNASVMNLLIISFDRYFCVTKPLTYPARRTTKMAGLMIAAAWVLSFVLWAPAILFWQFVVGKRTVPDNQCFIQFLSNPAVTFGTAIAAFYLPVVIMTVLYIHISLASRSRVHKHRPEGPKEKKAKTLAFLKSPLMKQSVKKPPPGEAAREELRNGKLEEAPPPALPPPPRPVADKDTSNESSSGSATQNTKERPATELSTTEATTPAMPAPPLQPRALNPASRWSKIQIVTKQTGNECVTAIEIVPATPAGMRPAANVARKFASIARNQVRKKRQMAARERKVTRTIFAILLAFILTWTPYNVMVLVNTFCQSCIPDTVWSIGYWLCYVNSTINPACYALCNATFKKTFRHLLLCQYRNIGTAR
Assay: CHRM4 Ca++ Flux Assay (agonist mode, FDSS 7000EX)
Assay type: cell-based
Conditions: for Emax: Percent Activity, read-out: M4 FDSS PA; for EC50: geometric mean if tested more than once, read-out: M4 FDSS EC50
Outline: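 Agonist-mode response was expressed as percent of the Carbachol EC100 and fitted with four-parameter nonlinear regression over an 11-point triplicate dose series. Intracellular Ca++ was tracked for 3 min by fluorescent dye in CHO-K1 cells stably expressing human CHRM4. Cells were preincubated 60 min with 20 μM ATP in buffer containing 2.5 mM probenecid.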

SMILES | Emax | EC50
c1ccc(C2CCN([C@@H]3CCC4(C3)CN(c3nncs3)C4)CC2)c(OC2COC2)c1 [Example 3A, (R)-2-(6-(4-(2-(oxetan-3-yloxy)phenyl)piperidin-1-yl)-2-azaspiro[3.4]octan-2-yl)-1,3,4-thiadiazole] | 88% | < 0.4 nM
c1ccc(C2CCN([C@@H]3CCC4(C3)CN(c3nncs3)C4)CC2)c(OC[C@H]2COCCO2)c1 [Example 3B, 2-((R)-6-(4-(2-(((R)-1,4-dioxan-2-yl)methoxy)phenyl)piperidin-1-yl)-2-azaspiro[3.4]octan-2-yl)-1,3,4-thiadiazole] | 70% | 1 nM
c1ccc(C2CCN([C@@H]3CCC4(C3)CN(c3nncs3)C4)CC2)c(OC[C@@H]2COCCO2)c1 [Example 3C, 2-((R)-6-(4-(2-(((S)-1,4-dioxan-2-yl)methoxy)phenyl)piperidin-1-yl)-2-azaspiro[3.4]octan-2-yl)-1,3,4-thiadiazole] | 66% | 2 nM
COc1ccccc1C1CCN([C@@H]2CCC3(C2)CN(c2nncs2)C3)CC1 [Example 3D, (R)-2-(6-(4-(2-methoxyphenyl)piperidin-1-yl)-2-azaspiro[3.4]octan-2-yl)-1,3,4-thiadiazole] | 71% | 2 nM
Fc1cccc(C2CCN([C@@H]3CCC4(C3)CN(c3nncs3)C4)CC2)c1OC1COC1 [Example 3E, (R)-2-(6-(4-(3-fluoro-2-(oxetan-3-yloxy)phenyl)piperidin-1-yl)-2-azaspiro[3.4]octan-2-yl)-1,3,4-thiadiazole] | 87% | 3 nM
COCCOc1ccccc1C1CCN([C@@H]2CCC3(C2)CN(c2nncs2)C3)CC1 [Example 3F, (R)-2-(6-(4-(2-(2-methoxyethoxy)phenyl)piperidin-1-yl)-2-azaspiro[3.4]octan-2-yl)-1,3,4-thiadiazole] | 60% | 6 nM
CC(C)(O)COc1ccccc1C1CCN([C@@H]2CCC3(C2)CN(c2nncs2)C3)CC1 [Example 3G, (R)-1-(2-(1-(2-(1,3,4-thiadiazol-2-yl)-2-azaspiro[3.4]octan-6-yl)piperidin-4-yl)phenoxy)-2-methylpropan-2-ol] | 57% | 7 nM
CC(C)(O)CCOc1ccccc1C1CCN([C@@H]2CCC3(C2)CN(c2nncs2)C3)CC1 [Example 3H, (R)-4-(2-(1-(2-(1,3,4-thiadiazol-2-yl)-2-azaspiro[3.4]octan-6-yl)piperidin-4-yl)phenoxy)-2-methylbutan-2-ol] | 48% | 8 nM
COc1ccccc1C1CCN([C@@H]2CCC3(C2)CN(c2ccns2)C3)CC1 [Example 3I, (R)-5-(6-(4-(2-methoxyphenyl)piperidin-1-yl)-2-azaspiro[3.4]octan-2-yl)isothiazole] | 70% | 1 nM
COCCOc1ccccc1C1CCN([C@@H]2CCC3(C2)CN(c2ncns2)C3)CC1 [Example 3J, (R)-5-(6-(4-(2-(2-methoxyethoxy)phenyl)piperidin-1-yl)-2-azaspiro[3.4]octan-2-yl)-1,2,4-thiadiazole] | 57% | 4 nM
CC(C)(O)COc1ccccc1C1CCN([C@@H]2CCC3(C2)CN(c2ncns2)C3)CC1 [Example 3K, (R)-1-(2-(1-(2-(1,2,4-thiadiazol-5-yl)-2-azaspiro[3.4]octan-6-yl)piperidin-4-yl)phenoxy)-2-methylpropan-2-ol] | 68% | 5 nM
CC(C)(O)CCOc1ccccc1C1CCN([C@@H]2CCC3(C2)CN(c2ncns2)C3)CC1 [Example 3L, (R)-4-(2-(1-(2-(1,2,4-thiadiazol-5-yl)-2-azaspiro[3.4]octan-6-yl)piperidin-4-yl)phenoxy)-2-methylbutan-2-ol] | 34% | 19 nM
COc1ccccc1C1CCN([C@@H]2CCC3(C2)CN(c2nc(C)ns2)C3)CC1 [Example 3M, (R)-5-(6-(4-(2-methoxyphenyl)piperidin-1-yl)-2-azaspiro[3.4]octan-2-yl)-3-methyl-1,2,4-thiadiazole] | 30% | 18 nM

Other lines, results leading:

Emax | EC50 | SMILES
83% | 10 nM | Fc1cncc(N2CC3(CC[C@@H](N4CCC(c5ccccc5C5CCOCC5)CC4)C3)C2)c1 [Example 5AA, (R)-2-(5-fluoropyridin-3-yl)-6-(4-(2-(tetrahydro-2H-pyran-4-yl)phenyl)piperidin-1-yl)-2-azaspiro[3.4]octane]
80% | 17 nM | c1ccc(C2CCN([C@@H]3CCC4(C3)CN(c3cncnc3)C4)CC2)c(C2CCOCC2)c1 [Example 5BB, (R)-2-(pyrimidin-5-yl)-6-(4-(2-(tetrahydro-2H-pyran-4-yl)phenyl)piperidin-1-yl)-2-azaspiro[3.4]octane]
84% | 22 nM | Fc1ccc(N2CC3(CC[C@@H](N4CCC(c5ccccc5C5CCOCC5)CC4)C3)C2)cn1 [Example 5CC, (R)-2-(6-fluoropyridin-3-yl)-6-(4-(2-(tetrahydro-2H-pyran-4-yl)phenyl)piperidin-1-yl)-2-azaspiro[3.4]octane]
26% | 82 nM | COc1ccccc1C1CCN([C@@H]2CCC3(C2)CN(c2cnc(C)cn2)C3)CC1 [Example 5DD, (R)-6-(4-(2-methoxyphenyl)piperidin-1-yl)-2-(5-methylpyrazin-2-yl)-2-azaspiro[3.4]octane]
25% | 63 nM | Cc1nccnc1N1CC2(CC[C@@H](N3CCC(c4ccccc4OCC(C)(C)O)CC3)C2)C1 [Example 5T, (R)-2-methyl-1-(2-(1-(2-(3-methylpyrazin-2-yl)-2-azaspiro[3.4]octan-6-yl)piperidin-4-yl)phenoxy)propan-2-ol]
49% | 28 nM | CC(C)(O)COc1ccccc1C1CCN([C@@H]2CCC3(C2)CN(c2ncncn2)C3)CC1 [Example 5U, (R)-1-(2-(1-(2-(1,3,5-triazin-2-yl)-2-azaspiro[3.4]octan-6-yl)piperidin-4-yl)phenoxy)-2-methylpropan-2-ol]
59% | 20 nM | COc1ccc(F)cc1C1CCN([C@@H]2CCC3(C2)CN(c2ccnnc2)C3)CC1 [Example 5V, (R)-6-(4-(5-fluoro-2-methoxyphenyl)piperidin-1-yl)-2-(pyridazin-4-yl)-2-azaspiro[3.4]octane]
90% | 1 nM | Fc1cccc(C2CCN([C@@H]3CCC4(C3)CN(c3cncnc3)C4)CC2)c1OC1COC1 [Example 5W, (R)-6-(4-(3-fluoro-2-(oxetan-3-yloxy)phenyl)piperidin-1-yl)-2-(pyrimidin-5-yl)-2-azaspiro[3.4]octane]
24% | 54 nM | COCCOc1ccccc1C1CCN([C@@H]2CCC3(C2)CN(c2cccnn2)C3)CC1 [Example 5X, (R)-6-(4-(2-(2-methoxyethoxy)phenyl)piperidin-1-yl)-2-(pyridazin-3-yl)-2-azaspiro[3.4]octane]
0% | > 25000 nM | COCCOc1ccccc1C1CCN([C@@H]2CCC3(C2)CN(c2cnc(C)cn2)C3)CC1 [Example 5Y, (R)-6-(4-(2-(2-methoxyethoxy)phenyl)piperidin-1-yl)-2-(5-methylpyrazin-2-yl)-2-azaspiro[3.4]octane]
44% | 42 nM | COCCOc1ccccc1C1CCN([C@@H]2CCC3(C2)CN(c2ccnnc2)C3)CC1 [Example 5Z, (R)-6-(4-(2-(2-methoxyethoxy)phenyl)piperidin-1-yl)-2-(pyridazin-4-yl)-2-azaspiro[3.4]octane]
 | 1 nM | COc1ccc(F)cc1C1CCN([C@@H]2CCC3(C2)CN(C(=O)C2COC2)C3)CC1 [Example 6A, (R)-(6-(4-(5-fluoro-2-methoxyphenyl)piperidin-1-yl)-2-azaspiro[3.4]octan-2-yl)(oxetan-3-yl)methanone]
50% | 5 nM | O=C(C1COC1)N1CC2(CC[C@@H](N3CCC(c4ccc(F)cc4OC(F)F)CC3)C2)C1 [Example 6B, (R)-(6-(4-(2-(difluoromethoxy)-4-fluorophenyl)piperidin-1-yl)-2-azaspiro[3.4]octan-2-yl)(oxetan-3-yl)methanone]
53% | 11 nM | CC(C)Oc1cc(F)ccc1C1CCN([C@@H]2CCC3(C2)CN(C(=O)C2COC2)C3)CC1 [Example 6D, (R)-(6-(4-(4-fluoro-2-isopropoxyphenyl)piperidin-1-yl)-2-azaspiro[3.4]octan-2-yl)(oxetan-3-yl)methanone]
65% | 3 nM | O=C(N1CC2(CC[C@@H](N3CCC(c4ccccc4C4CCOCC4)CC3)C2)C1)C1(F)CC1 [Example 6E, (R)-(1-fluorocyclopropyl)(6-(4-(2-(tetrahydro-2H-pyran-4-yl)phenyl)piperidin-1-yl)-2-azaspiro[3.4]octan-2-yl)methanone]
71% | 4 nM | O=C(C1COC1)N1CC2(CC[C@@H](N3CCC(c4ccccc4OC4CC4)CC3)C2)C1 [Example 7A, (R)-(6-(4-(2-cyclopropoxyphenyl)piperidin-1-yl)-2-azaspiro[3.4]octan-2-yl)(oxetan-3-yl)methanone]
44% | 4 nM | CC(C)(F)COc1ccccc1C1CCN([C@@H]2CCC3(C2)CN(C(=O)C2COC2)C3)CC1 [Example 7B, (R)-(6-(4-(2-(2-fluoro-2-methylpropoxy)phenyl)piperidin-1-yl)-2-azaspiro[3.4]octan-2-yl)(oxetan-3-yl)methanone]
